Laboratory results taken from US11730712B2, “Functionalized long-chain hydrocarbon mono- and di-carboxylic acids and derivatives thereof, and their use for the prevention or treatment of disease” (ESPERVITA THERAPEUTICS, INC., priority 2021, dated 2023).
Several values for one entry are separate records, joined by “and”; a condition that tells them apart may be missing. Equal values may be shown once.

Legend:
[1] = test system: mouse primary hepatocytes; test: 14C-acetate incorporation into total lipids in primary mouse hepatocytes; assay type: cell-based; conditions: Hepatocyte, 4-hour period, read-out: IC50 in μM, inhibition of 14C-acetate incorporation in total lipids
Experimental: After perfusion, collagen digested liver cells were re-suspended in William's E media (11 mM glucose) (Gibco) supplemented with 10% fetal bovine serum (FBS) (Gibco), 2 mM L-glutamine (Gibco) and 1% Antibiotic-Antimycotic (Gibco) mixture and seeded in white opaque 96-well plates. On the following day, the cells were serum-starved for 2 hours, then treated with 0 μM, 0.1 μM, 0.3 μM, 0.5 μM, 1 μM, 3 μM, 10 μM, and 100 μM of Compound I-32, Compound I-1, or Compound III-1 or Reference Compound (e.g., Compounds A-E and bempedoic acid) in the presence of ^14C-Acetate (1 μCi/ml, PerkinElmer). Each of Compound I-32, Compound I-1, Compound III-1, and Reference Compound was solubilized in 100% DMSO to a final concentration of 100 mM stock solution. In the experimental condition, the stock solution was diluted in serum free media (William's E media (11 mM glucose) (Gibco), 2 mM L-glutamine (Gibco) and 1% Anti biotic-Antimycotic) to yield the desired concentration of each compound. […] After 4 hours of treatment, the plates were washed two times with PBS (×1) and 100 μL microscint fluid (Microscint O, part #601361) was added in each well. Plates were wrapped with aluminum foil and were shaken at 250 rpm for 2 h. After 2 h of shaking, ^14C incorporation into lipid was determined by liquid scintillation counting using a TopCount NXT Microplate Scintillation and Luminescence Counter (Perkin Elmer).
The effects of Compound I-32. Compound I-1, and Compound III-1 on mouse primary hepatocyte lipogenesis are represented in Table 1. Each Compound was assayed at a concentration of 0 μM (vehicle control), 0.1 μM, 0.3 μM, 0.5 μM, 1 μM, 3 μM, 10 μM, and 100 μM, unless otherwise noted. Statistically significant inhibition was determined by one-way ANOVA and Dennett's post hoc test where appropriate. […] IC50 values were determined by nonlinear regression. All statistical analyses were carried out using GraphPad Prism 8 software. A p-value of less than or equal 0.05 was considered significant.

[2] = test system: DEN-injected mice on high fat high fructose diet; test: NASH-HCC model by diethylnitrosamine (DEN) induction: tumors, ALT/AST, liver histology; assay type: in vivo, mouse; parameters: key to Fibrosis Score, individual mice: 1a: Mild (delicate) zone 3 perisinusoidal fibrosis, requires Masson's trichome stain to identify; 1b: Moderate(dense) zone 3 perisinusoidal fibrosis; 1c: Portal fibrosis only; NAFLD Activity Score, individual mice / NAFLD Activity Score, Avg: scale not given here; conditions: 4 weeks; for Fibrosis Score, individual mice / NAFLD Activity Score, individual mice / No. of Surface Tumors, individual mice / NAFLD Activity Score, Avg / No. of Surface Tumors, Avg: 100 mg/kg daily oral gavage; for No. of Surface Tumors, individual mice: mice analyzed by Nanostring; for NAFLD Activity Score, Avg / No. of Surface Tumors, Avg: n=8; for liver fibrosis (trichrome stained livers): 100 mg/kg; for NAFLD activity scores (NAS) / liver inflammation scores / liver steatosis and ballooning scores: 30 and 100 mg/kg; for plasma ALT and AST levels: 30 or 100 mg/kg, dose-dependent
Experimental: Materials and Methods. All experiments were carried out using the guidelines approved by the Animal Research Ethics Board at McMaster University, Canada. Male mice obtained from Steinberg Lab Breeding Colony housed within the McMaster University Central Animal Facility were used for these experiments. The test agents were prepared by solubilizing them in a solution of sodium bicarbonate. Compound I-32 and Compound I-1 were administered at a dose of 30 or 100 mg/kg with a dosing volume of 10 ml/kg by daily oral gavage for 4 weeks. This route was selected because it simulates the oral administration route intended for use in human clinical studies and ensures the correct dose of compound is ingested by each animal. Data are expressed as means±the standard error of the mean. Statistical comparisons were carried out using a one-way analysis of variance followed by Dunnett's post hoc test using GraphPad Prism 8 software. A p-value of less than or equal to 0.05 will be used as the criterion of significance.
Experimental Protocol. At 2 weeks of age mice were injected with diethylnitrosamine (DEN) at 25 mg/kg body weight. After weaning mice were housed with littermates and fed a normal chow diet (Teklad 8640 22/5). […] After 7.5 months, mice were bled from the tail vein and plasma alpha-fetoprotein (AFP) levels were determined. AFP is a serum biomarker of HCC progression in humans and mice treated with DEN. At 8 months, mice were divided into 5 groups, based on mean AFP levels and then received a single daily dose of either vehicle (1.5% CMC and 0.2% Tween-20) or 30 mg/kg or 100 mg/kg of Compound I-32 or Compound I-1 via gavage. Throughout the experiments mice were housed in ventilated cage racks with ad libitum access to the food and water. An automatic timing device was used to maintain an alternating 12-hour cycle of light and dark.
After 4 weeks of daily treatments mice were anesthetized by I.P. injection of Ketamine/Xylazine (150 mg/12.4 mg/kg, respectively) in saline. When anesthetic plane has been achieved, 0.5 ml of blood was drawn by cardiac puncture, and plasma was isolated and frozen in liquid nitrogen. The liver was excised intact and rinsed briefly in PBS on ice. The liver was weighed, a photo was taken and the number of visible lesions on the surface of the liver was counted and recorded. A portion of tumor-free liver (˜200 mg, caudate lobe) and up to three individual tumors were removed, flash frozen in liquid nitrogen and stored for molecular analysis. The remainder of the liver was placed in 10% formalin, fixed for 48 hours, and stored in 70% ethanol until it was embedded in paraffin, sectioned, and mounted on slides for histological analysis.
AFP assay. Before starting the treatment, mice were bled from the tail vein and plasma alpha-fetoprotein (AFP) levels were determined using mouse alpha-Feto protein/AFP Duoset ELISA kit (R&D Systems, Inc., MN, USA) as recommended by the manufacturer. 100 μl sample (1:1000 in reagent diluent) was added on each well of 96-well plate coated with mouse AFP capture antibody. Next, the plates were washed with wash buffer and 100 μl detection antibody was added to each well, followed by the Streptavidin HRP and substrate solution. The reaction was stopped by stop solution and the optical density of each well was measured in a microplate reader set to 450 nm. After measuring AFP levels, mice were divided into five groups (>800 ng/ml) and treatment was initiated.
ALT/AST assay. Plasma Alanine Transaminase (ALT) and Aspartate Transaminase (AST) levels were determined using ALT (CAK1002, Cohesion Biosciences) and AST (CAK 1004, Cohesion Biosciences) activity kits following the manufacturer instructions. 10 μl of plasma sample was added with 50 μl of substrate in 96-well plate. The reaction was carried out for 30 minutes at 37° C., detected by dye reagent I and II and absorbance was measured at 520 nm. […]

Structure (SMILES)	IC50 [1]	Fibrosis Score, individual mice [2]	NAFLD Activity Score, individual mice [2]	No. of Surface Tumors, individual mice [2]	NAFLD Activity Score, Avg [2]	No. of Surface Tumors, Avg [2]	liver fibrosis (trichrome stained livers) [2]	NAFLD activity scores (NAS) [2]	liver inflammation scores [2]	liver steatosis and ballooning scores [2]	plasma ALT and AST levels [2]	reduction of the number of surface tumors ([2]; 30 mg/kg and 100 mg/kg daily oral)
CC(C)(CCCCc1cccc(CCCCC(C)(C)C(=O)O)c1)C(=O)O [Compound I-32, 6-[3-(5-carboxy-5-methylhexyl)-phenyl]-2,2-dimethylhexanoic acid]	0.34 µM	1b (4×) and 1c and 1a (3×)	2 and 5 and 4 (3×) and 6 and 3 and 1	7 and 6 and 3 (2×) and 1 and 30 and 4 and 2	3.625	7	fibrosis was significantly reduced	reduced NAFLD activity scores (NAS) at both 30 and 100 mg/kg	without altering inflammation scores	dramatically reduced steatosis	significantly decreased	–
CC(C)(CCCCc1ccc(CCCCC(C)(C)C(=O)O)cc1)C(=O)O [Compound I-1, 6-[4-(5-carboxy-5-methylhexyl)-phenyl]-2,2-dimethylhexanoic acid]	0.46 µM	1a (3×) and 1b (3×) and 1c (2×)	4 (4×) and 6 (2×) and 3 and 2	8 and 6 (2×) and 11 and 10 and 14 and 7 and 3	4.1	8.1	fibrosis was significantly reduced	reduced NAFLD activity scores (NAS) at both 30 and 100 mg/kg	without altering inflammation scores	dramatically reduced steatosis	significantly decreased	over 70%
